Reference: patent publication US12590062B2, “PD-1/PD-L1 inhibitors” (Gilead Sciences, Inc., priority 2017, dated 2026)

Experiments:
[1] = target: T1, PD-1/PD-L1 interaction (Homo sapiens, UniProt Q9NZQ7); test: PD-1/PD-L1 NFAT reporter co-culture assay; assay type: cell-based; conditions: Jurkat PD-1 NFAT-luciferase cells co-cultured with aAPC-PD-L1 CHO cells, 6 hrs at 37° C.; read-out: EC50 NFAT Luciferase
T1 construct: expressed in transfected cells; host or cells: CHO cells (aAPC-PD-L1) co-cultured with Jurkat cells overexpressing PD-1 and an NFAT-luciferase reporter
Outline: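 First, CHO cells displaying anti-CD3 antibody and PD-L1 were plated overnight. Next, compound-treated PD-1 Jurkat NFAT-luciferase reporter cells in 2% FBS RPMI were added for 6 h at 37 °C. Finally, ONE-Glo luminescence was read and EC50 values fitted with a four-parameter equation.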

[2] = target: T2, PD-L1 (Homo sapiens, UniProt Q9NZQ7); test: PD-L1/PD-L1 dimerization biochemical protein-protein interaction assay (ALPHA); assay type: binding; conditions: compound-induced PD-L1 dimerization, head prints '1 nM' (0.5 nM His-tagged PD-L1 and 0.5 nM FLAG-tagged PD-L1), read-out: AC50 PDL1 Dimer Alpha 1 nM
T2 construct: determine if they can specifically dimerize the extracellular domains of PD-L1
Outline: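 After 2 h at 25 °C with compound, His- and FLAG-tagged PD-L1 ECDs (each 0.5 nM final; 25 mM Hepes pH 7.4, 150 mM NaCl) were detected by sequential anti-His acceptor and anti-FLAG donor bead incubations. Dose-response curves fitted to four-parameter equation for AC50.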

[3] = target: T3, interaction between the recombinant extracellular domain (ECD) of PD-1 and native cell-bound PD-L1 (Homo sapiens, UniProt Q9NZQ7); test: CHO/PD-L1 cell capture assay; assay type: cell-based; conditions: CHO cells overexpressing PD-L1, pre-incubated 1 hr with compound, captured on biotinylated Fc-PD-1 coated plates, 75 min at room temperature
T3 construct: expressed in transfected cells
Outline: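 EC50 values came from four-parameter fits of counts of Draq5-stained CHO-PD-L1 cells retained on plate-bound biotinylated Fc-PD-1 ECD, enumerated by high-content imaging. Cells in PBS pH 7.4 with EDTA and 2% BSA had 1 hr compound pre-incubation, then 75 min capture at room temperature.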

[4] = target: PD-1/PD-L1 (Homo sapiens, UniProt Q9NZQ7); test: PD-1/PD-L1 biochemical protein-protein interaction assay (ALPHA); assay type: binding; conditions: 0.3 nM His tagged PD-L1, 2.5 nM biotinylated Fc-PD-1, 60 minutes at 25° C., read-out: IC50 PD-L1-PD-1 Alpha IC50-mono PD-L1-fcP-D1
Outline: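 IC50 values derive from four-parameter fits of ALPHA signal decrease. Assay: 0.3 nM His-tagged PD-L1 with 2.5 nM biotinylated Fc-PD-1, Hepes pH 7.4 with 0.005% Tween 20 and 0.01% BSA, 60 min at 25° C, then anti-His acceptor and streptavidin donor beads.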

T1 sequence (Q9NZQ7 19-290): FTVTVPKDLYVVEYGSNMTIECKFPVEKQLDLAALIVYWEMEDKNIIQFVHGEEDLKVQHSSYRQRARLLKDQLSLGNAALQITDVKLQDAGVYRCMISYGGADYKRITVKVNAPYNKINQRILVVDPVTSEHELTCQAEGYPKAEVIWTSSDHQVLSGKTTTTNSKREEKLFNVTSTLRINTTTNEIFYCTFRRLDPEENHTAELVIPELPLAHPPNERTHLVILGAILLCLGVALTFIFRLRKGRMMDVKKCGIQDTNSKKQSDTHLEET
T3 sequence (Q9NZQ7 19-290): as above
Chain of PD-1/PD-L1 (Q9NZQ7 19-238 limits assumed): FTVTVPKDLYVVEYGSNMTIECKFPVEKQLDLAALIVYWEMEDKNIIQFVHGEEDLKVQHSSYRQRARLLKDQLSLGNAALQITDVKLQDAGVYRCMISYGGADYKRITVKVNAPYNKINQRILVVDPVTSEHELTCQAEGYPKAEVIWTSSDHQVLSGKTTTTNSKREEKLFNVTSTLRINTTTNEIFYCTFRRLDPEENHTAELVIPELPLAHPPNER
T2 sequence (Q9NZQ7 19-238 limits assumed): as above
T2 sequence (Q9NZQ7 19-238 limits assumed): as above

COc1nc(OCc2cccc(-c3cccc(COc4nc(OC)c(CNCCCC(=O)O)cc4Cl)c3C)c2C)c(Cl)cc1CNCCCC(=O)O [Example 183, 4,4′-((((((2,2′-dimethyl-[1,1′-biphenyl]-3,3′-diyl)bis(methylene))bis(oxy))bis(5-chloro-2-methoxypyridine-6,3-diyl))bis(methylene))bis(azanediyl))dibutyric acid]
EC50 [1]: 141 nM
AC50 [2]: 260 nM
EC50 [3]: 69.1 nM

COc1nc(OCc2cccc(-c3cccc(-c4ccc(OCCNC[C@@H](O)CC(=O)O)cc4)c3C)c2C)c(Cl)cc1CNC[C@@H](O)CC(=O)O [Example 109, (S)-4-(((6-((4″-(2-(((S)-3-carboxy-2-hydroxypropyl)amino)ethoxy)-2,2′-dimethyl-[1,1′:3′,1″-terphenyl]-3-yl)methoxy)-5-chloro-2-methoxypyridin-3-yl)methyl)amino)-3-hydroxybutanoic acid]
EC50 [1]: 662 nM
AC50 [2]: 113 nM
EC50 [3]: 7.5 nM

Cc1c(COc2cc(OCc3cncc(C#N)c3)c(CNCCO)cc2Cl)cccc1-c1cccc2c1CCN2C(=O)c1ccc(CNCCO)c(OCc2cncc(C#N)c2)c1 [Example 205, 5-((4-Chloro-5-((3-(1-(3-((5-cyanopyridin-3-yl)methoxy)-4-(((2-hydroxyethyl)amino)methyl)benzoyl)indolin-4-yl)-2-methylbenzyl)oxy)-2-(((2-hydroxyethyl)amino)methyl)phenoxy)methyl)nicotinonitrile]
EC50 [1]: 1430 nM
EC50 [3]: 394 nM
IC50 [4]: 6.9 nM

Cc1c(-c2ccc(OCCNC[C@@H](O)CC(=O)O)cc2)cccc1-c1cccc(-c2ccc(OCCNC[C@@H](O)CC(=O)O)cc2)c1C [Example 106, (3S,3′S)-4,4′-((((2′,2″-dimethyl-[1,1′:3′,1″:3″,1′″-quaterphenyl]-4,4′″-diyl)bis(oxy))bis(ethane-2,1-diyl))bis(azanediyl))bis(3-hydroxybutanoic acid)]
EC50 [1]: 5270 nM
EC50 [3]: 110 nM
IC50 [4]: 0.4 nM

COc1nc(OC2CCc3c(-c4cccc5c4CCC5Oc4ccc(CNC[C@@H](O)CC(=O)O)c(OC)n4)cccc32)ccc1CNC[C@@H](O)CC(=O)O (stereo partly drawn) [Example 13, (3S,3′S)-4,4′-(((((2,2′,3,3′-tetrahydro-1H,1′H-[4,4′-biindene]-1,1′-diyl)bis(oxy))bis(2-methoxypyridine-6,3-diyl))bis(methylene))bis(azanediyl))bis(3-hydroxybutanoic acid)]
EC50 [1]: 4800 nM
EC50 [3]: 457 nM
IC50 [4]: 2.2 nM

Cc1c(COc2nc(OCc3cncnc3)c(CNC[C@@H](O)CC(=O)O)cc2Br)cccc1-c1cccc(COc2nc(OCc3cncnc3)c(CNC[C@@H](O)CC(=O)O)cc2Br)c1C [Example 126, (3S,3′S)-4,4′-((((((2,2′-dimethyl-[1,1′-biphenyl]-3,3′-diyl)bis(methylene))bis(oxy))bis(5-bromo-2-(pyrimidin-5-ylmethoxy)pyridine-6,3-diyl))bis(methylene))bis(azanediyl))bis(3-hydroxybutanoic acid)]
EC50 [1]: 327 nM
EC50 [3]: 180 nM
IC50 [4]: 0.1 nM

Cc1c(COc2nc(OCc3cc(C#N)cc(C#N)c3)c(CNC[C@@H](O)CC(=O)O)cc2Br)cccc1-c1cccc(COc2nc(OCc3cc(C#N)cc(C#N)c3)c(CNC[C@@H](O)CC(=O)O)cc2Br)c1C [Example 121, (3S,3′S)-4,4′-((((((2,2′-dimethyl-[1,1′-biphenyl]-3,3′-diyl)bis(methylene))bis(oxy))bis(5-bromo-2-((3,5-dicyanobenzyl)oxy)pyridine-6,3-diyl))bis(methylene))bis(azanediyl))bis(3-hydroxybutanoic acid)]
EC50 [1]: 74 nM
EC50 [3]: 176 nM
IC50 [4]: 1.4 nM

COc1nc(OCc2cccc(-c3cccc(COc4nc(OC)c(CNC[C@@H](O)CC(=O)O)cc4C(F)(F)F)c3C)c2C)c(C(F)(F)F)cc1CNC[C@@H](O)CC(=O)O [Example 160, (3S,3′S)-4,4′-((((((2,2′-dimethyl-[1,1′-biphenyl]-3,3′-diyl)bis(methylene))bis(oxy))bis(2-methoxy-5-(trifluoromethyl)pyridine-6,3-diyl))bis(methylene))bis(azanediyl))bis(3-hydroxybutanoic acid)]
EC50 [1]: 139 nM
EC50 [3]: 191 nM
IC50 [4]: 0.6 nM

COc1nc(OCc2cccc(-c3cccc(COc4nc(OC)c(CNC[C@@H](O)CC(=O)O)cc4Br)c3C)c2C)c(Br)cc1CNC[C@@H](O)CC(=O)O [Example 113, (3S,3′S)-4,4′-((((((2,2′-dimethyl-[1,1′-biphenyl]-3,3′-diyl)bis(methylene))bis(oxy))bis(5-bromo-2-methoxypyridine-6,3-diyl))bis(methylene))bis(azanediyl))bis(3-hydroxybutanoic acid)]
EC50 [1]: 193 nM
EC50 [3]: 148 nM
IC50 [4]: 0.6 nM

Cc1c(COc2nc(OCc3cncc(S(C)(=O)=O)c3)c(CN[C@@](C)(CO)C(=O)O)cc2Br)cccc1-c1cccc(COc2nc(OCc3cncc(S(C)(=O)=O)c3)c(CN[C@@](C)(CO)C(=O)O)cc2Br)c1C [Example 41, (2S,2′S)-2,2′-((((((2,2′-dimethyl-[1,1′-biphenyl]-3,3′-diyl)bis(methylene))bis(oxy))bis(5-bromo-2-((5-(methylsulfonyl)pyridin-3-yl)methoxy)pyridine-6,3-diyl))bis(methylene))bis(azanediyl))bis(3-hydroxy-2-methylpropanoic acid)]
EC50 [1]: 188 nM
EC50 [3]: 248 nM
IC50 [4]: 0.2 nM

Cc1c(COc2ccc(CNC[C@@H](O)CC(=O)O)c(OCc3cncnc3)n2)cccc1-c1cccc(COc2ccc(CNC[C@@H](O)CC(=O)O)c(OCc3cncnc3)n2)c1C [Example 157, (3S,3′S)-4,4′-((((((2,2′-dimethyl-[1,1′-biphenyl]-3,3′-diyl)bis(methylene))bis(oxy))bis(2-(pyrimidin-5-ylmethoxy)pyridine-6,3-diyl))bis(methylene))bis(azanediyl))bis(3-hydroxybutanoic acid)]
EC50 [1]: 465 nM
EC50 [3]: 81.1 nM
IC50 [4]: 0.2 nM

Cc1c(COc2cc(OCC3CCOC3)c(CNC[C@@H](O)CC(=O)O)cc2Cl)cccc1-c1cccc(COc2cc(OCC3CCOC3)c(CNC[C@@H](O)CC(=O)O)cc2Cl)c1C (stereo partly drawn) [Example 280, (3S,3′S)-4,4′-((((((2,2′-dimethyl-[1,1′-biphenyl]-3,3′-diyl)bis(methylene))bis(oxy))bis(5-chloro-2-((tetrahydrofuran-3-yl)methoxy)-4,1-phenylene))bis(methylene))bis(azanediyl))bis(3-hydroxybutanoic acid)]
EC50 [1]: 592 nM
EC50 [3]: 208 nM
IC50 [4]: 0.3 nM

Cc1c(COc2cc(OCc3cncc(C#N)c3)c(CNCCO)cc2Cl)cccc1-c1cccc(COc2cc(OCc3cncc(C#N)c3)c(CNCCO)cc2Cl)c1C [Example 68, 5,5′-((((((2,2′-dimethyl-[1,1′-biphenyl]-3,3′-diyl)bis(methylene))bis(oxy))bis(4-chloro-6-(((2-hydroxyethyl)amino)methyl)-3,1-phenylene))bis(oxy))bis(methylene))dinicotinonitrile]
EC50 [1]: 553 nM
EC50 [3]: 279 nM
IC50 [4]: 10.3 nM

COc1nc(O[C@H]2CCc3c(-c4cccc5c4CC[C@@H]5Oc4ccc(CNC[C@@H](O)CC(=O)O)c(OC)n4)cccc32)ccc1CNC[C@@H](O)CC(=O)O [Example 11, (3S,3′S)-4,4′-((((((1S,1′S)-2,2′,3,3′-tetrahydro-1H,1′H-[4,4′-biindene]-1,1′-diyl)bis(oxy))bis(2-methoxypyridine-6,3-diyl))bis(methylene))bis(azanediyl))bis(3-hydroxybutanoic acid)]
EC50 [1]: 1100 nM
EC50 [3]: 170 nM
IC50 [4]: 0.4 nM

Cc1c(COc2nc(OCCN3CCOCC3)c(CNC[C@@H](O)CC(=O)O)cc2Cl)cccc1-c1cccc(COc2nc(OCCN3CCOCC3)c(CNC[C@@H](O)CC(=O)O)cc2Cl)c1C [Example 159, (3S,3′S)-4,4′-((((((2,2′-dimethyl-[1,1′-biphenyl]-3,3′-diyl)bis(methylene))bis(oxy))bis(5-chloro-2-(2-morpholinoethoxy)pyridine-6,3-diyl))bis(methylene))bis(azanediyl))bis(3-hydroxybutanoic acid)]
EC50 [1]: 538 nM
EC50 [3]: 190 nM
IC50 [4]: 0.5 nM
